Measured values published in US10471076B2, “Compositions and methods to treat vision disorders” (YouHealth Biotech, Limited, priority 2014, dated 2019).

Tests used:
[1] = biological target: T1, αA-crystallin (Y118D) aggregates (Homo sapiens, UniProt P02489, Y118D); test: Serial live-cell imaging, single-particle tracking of aggregates; assay type: cell-based; details: human lens progenitor cells; 40 mM sterol in 1% DMSO for 4 h
T1 construct: expressed in transfected cells; host or cells: human lens progenitor cells, G418-selected
T1 sequence (P02489 1-173 Y118D): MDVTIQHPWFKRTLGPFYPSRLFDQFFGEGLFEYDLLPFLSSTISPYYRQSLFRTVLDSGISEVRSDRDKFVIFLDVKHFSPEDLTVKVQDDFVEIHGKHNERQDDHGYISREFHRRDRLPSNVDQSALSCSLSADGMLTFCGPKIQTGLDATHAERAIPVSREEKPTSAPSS
Method: Live-cell imaging. Human lens progenitor cells were transfected with plasmids containing αA-crystallin (Y118D) mutant. After a 24 h transfection period, the cells with stable expression of αA-crystallin (Y118D) mutant were screen by incubation in culture medium containing 0.8 mg ml^−1 G418 for 7 days. Then the obtained cells were seeded onto glass bottom cell culture dishes (In Vitro Scientific) and treated with 1% DMSO, 40 mM cholesterol in 1% DMSO or 40 mM lanosterol in 1% DMSO for 4 h. Fresh culture medium was added, and the cells were analysed by serial live-cell imaging. Live-cell images were viewed with an Olympus IX81 microscope and captured with CellSens Dimension soft-ware (Olympus). Quantitative analysis of the size of aggregates was performed by measuring the fluorescence intensity of p62-positive aggregates using single-par-tide tracking in live-cell imaging. The live-cell imaging was conducted using three biological replicates with 1-8 repetitions each.

[2] = system: cataract-causing mutant crystallin proteins; test: Intracellular aggregation of mutant crystallins in HLEB-3 cells; assay type: cell-based, human; details: then 12 h
Method: FIG. 9A, FIG. 9B, and FIG. 9C show inhibition of crystallin mutant aggregation by wild-type LSS and lanosterol in HLEB-3 cells (FIG. 9A) or HeLa cells (FIG. 9B). Cells co-transfected with LSS and crystallin mutant constructs were cultured for 24 h before assaying for aggregates. The rescue experiments were performed by addition of 40 […] μM sterols (lanosterol or cholesterol) to the cell culture medium for 2 h, the sterol medium was then replaced with fresh culture medium and the cells were cultured for a further 12 h. The percentage of cells with crystallin aggregates were calculated from ten randomly selected viewing fields. The values of the wild-type LSS group, mutant group, or mutant plus lanosterol group were calculated. […] After transfection for 4 h and incubation in fresh culture medium for another 24 h, the cells were lysed and centrifuged to separate supernatant and insoluble fractions. LSS and crystallin fusion proteins were detected by antibodies against Flag and GFP, respectively. Red arrows indicate higher crystalline content in the soluble fraction versus in the insoluble fraction in cells containing the WT-LSS.
Cells were transfected with various crystallin constructs for 4 h and cultured for an additional 24 h in fresh culture medium. Then the cells were treated with 10, 20 and 40 μM lanosterol in 1% (HLEB-3 cells) or 2% DMSO (HeLa cells) for 2 h and cultured for another 12 h. Cells treated with 1% (HLEB-3 cells) or 2% DMSO (HeLa cells) were used as the controls. Formation of intracellular aggregates of various crystallin proteins was visualized by fluorescence of GFP (green) and the nuclei were stained with Hoechst 33342 (blue). Typical intracellular aggregates are indicated by arrows.
The impact of LSS and lanosterol on intracellular crystallin aggregation were evaluated in single-blinded observer studies. Experiments have been repeated at least three times. P values were calculated using Student's t-tests. Fluorescence microscopy. […]

Structure (SMILES): CC(C)=CCC[C@@H](C)[C@H]1CC[C@@]2(C)C3=C(CC[C@]12C)[C@@]1(C)CC[C@H](O)C(C)(C)[C@@H]1CC3 [lanosterol, 3β-Hydroxy-8,24-lanostadiene; 8,24-Lanostadien-3β-ol]
- effect on αA-crystallin (Y118D) aggregates in live cells [1]: could effectively diminish crystallin aggregates
- percentage of cells with crystallin aggregates versus control group (rescue) ([2]; HLEB-3 cells co-transfected with LSS and crystallin mutant, 40 μM sterols 2 h, lanosterol P<1×10^−4, cholesterol P>0.1): significantly lower
- intracellular aggregation caused by cataract-causing mutant crystallin proteins ([2]; HLEB-3 cells, 10, 20 and 40 μM lanosterol in 1% DMSO for 2 h, concentration-dependent): significantly reduced the intracellular aggregation
